Source: patent US20240336620A1, “PROTEIN D[…] AND METHODS OF USE” (AnHorn Medicines Co., Ltd., priority 2022, published 2024)

Target: T1, androgen receptor (Homo sapiens, UniProt P10275, T878A)
T1 construct: host or cells: LNCaP·FGC cells
T1 sequence (P10275 1-920 T878A): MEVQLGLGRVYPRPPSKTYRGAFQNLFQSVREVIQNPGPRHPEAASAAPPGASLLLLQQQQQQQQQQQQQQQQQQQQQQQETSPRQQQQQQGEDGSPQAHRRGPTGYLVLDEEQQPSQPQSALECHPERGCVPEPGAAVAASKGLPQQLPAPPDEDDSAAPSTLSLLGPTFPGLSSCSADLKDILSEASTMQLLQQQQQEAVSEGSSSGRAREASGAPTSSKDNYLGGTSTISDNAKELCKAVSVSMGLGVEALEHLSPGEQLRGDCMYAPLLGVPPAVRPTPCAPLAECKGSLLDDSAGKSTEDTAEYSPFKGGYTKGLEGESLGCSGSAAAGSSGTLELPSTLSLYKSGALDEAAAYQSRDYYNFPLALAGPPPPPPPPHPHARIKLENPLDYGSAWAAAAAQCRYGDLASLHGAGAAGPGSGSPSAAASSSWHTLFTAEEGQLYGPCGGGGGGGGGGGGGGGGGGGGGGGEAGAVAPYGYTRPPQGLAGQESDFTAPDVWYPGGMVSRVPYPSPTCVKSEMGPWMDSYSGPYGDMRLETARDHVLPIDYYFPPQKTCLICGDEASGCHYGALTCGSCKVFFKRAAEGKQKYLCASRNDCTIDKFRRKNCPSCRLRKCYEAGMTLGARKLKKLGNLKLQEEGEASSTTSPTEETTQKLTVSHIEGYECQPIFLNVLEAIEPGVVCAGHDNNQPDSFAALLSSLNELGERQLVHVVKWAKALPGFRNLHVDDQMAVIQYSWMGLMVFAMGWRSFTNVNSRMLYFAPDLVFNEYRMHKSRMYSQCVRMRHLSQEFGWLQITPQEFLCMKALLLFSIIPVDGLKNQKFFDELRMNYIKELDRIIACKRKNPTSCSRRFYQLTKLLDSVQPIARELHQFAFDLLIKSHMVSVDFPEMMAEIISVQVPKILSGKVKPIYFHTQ
Assay: Androgen receptor degradation assay using Western blot analysis
Format: cell-based
Details: LNCaP·FGC cells, concentration needed for 50% AR degradation, serial dilutions
Procedure: LNCaP·FGC cells (Cat. 60088, Bioresource Collection and Research Center, 15 HsinChu City, Taiwan R.O.C.) grown in RPMI 1640 (Cat. 31800022, Thermo Fisher Scientific, Waltham, Massachusetts, United States) medium supplemented with 10% FBS (Cat. 10437028, Thermo Fisher Scientific, Waltham, Massachusetts, United States), 10 mM HEPES (Cat. 15630080, Thermo Fisher Scientific, Waltham, Massachusetts, United States) and 1 mM sodium pyruvate (Cat. 11360070, Thermo 20 Fisher Scientific, Waltham, Massachusetts, United States) were seeded at 2×10^5 cells per well in 24-well tissue culture plates. […] After the treatment, the cells were harvested, washed by PBS, and lysed with RIPA lysis and extraction buffer (Cat. 25 89900, Thermo Fisher Scientific, Waltham, Massachusetts, United States) supplemented with Halt Protease Inhibitor Cocktail (Cat. 78430, Thermo Fisher Scientific, Waltham, Massachusetts, United States) to collect protein samples. Cells not treated with any of the above-mentioned compounds are used as a negative control.
The protein samples were separated by polyacrylamide gel electrophoresis, and then transferred to a piece of Immuno-Blot PVDF membrane (Cat. 1620177, Bio-Rad Laboratories, Hercules, California, United States). The presence of androgen receptor in the protein samples was detected by standard Western blotting procedure using an anti-AR antibody (1:2000 dilution) (Cat. 5153, Cell Signaling Technology Inc., Danvers, Massachusetts, United States) and a goat anti-rabbit HRP-conjugated secondary antibody (1:5000 dilution) (C04003, Croyez Bioscience Co., Ltd., Taipei City, Taiwan R.O.C.). The internal loading control GAPDH was detected using a mouse monoclonal antibody (1:5000) (GTX627408, GeneTex International Corp., HsinChu City, Taiwan R.O.C.) and a goat anti-mouse HRP-conjugated secondary antibody (1:5000 dilution) (C04001, Croyez Bioscience Co., Ltd., Taipei City, Taiwan R.O.C.). Chemiluminescence signals were developed using Clarity Western ECL substrate (Cat. 1705061, Bio-Rad Laboratories, Hercules, California, United States) and detected with digital imager iBright FL1500 (Invitrogen Corp., Carlsbad, California, United States).
Compounds 1-16 were selected and serial diluted (1Ox) with RPMI medium for treating LNCaP·FGC cells. A calibration curve was determined by the serial diluted samples for each compound, and the concentration needed for 50% AR degradation (AR DC50) for each compound was calculated. “Cpd. ID” indicates the compound ID number in Table 1.

Compound | DC50 [nM]
Cn1c2c(c3ccc(N4CCN(CC5CCN(c6ccc(-c7ccc8c(c7)C(C)(C)C(=O)N8c7ccc(C#N)c(Cl)c7)nn6)CC5)CC4)cc31)C(=O)N(C1CCC(=O)NC1=O)C2=O (stereo not shown) [Compound 11] | ≥ 1000
CCn1c2c(c3ccc(OCCN4CCN(c5ccc(-c6ccc7c(c6)C(C)(C)C(=O)N7c6ccc(C#N)c(Cl)c6)c(F)n5)CC4)cc31)C(=O)N(C1CCC(=O)NC1=O)C2=O (stereo not shown) [Compound 15] | 200 to 1000
Cn1c2c(c3ccc(C4CCN(CC5CCN(c6ccc(-c7ccc8c(c7)C(C)(C)C(=O)N8c7ccc(C#N)c(Cl)c7)c(F)n6)CC5)CC4)cc31)C(=O)N(C1CCC(=O)NC1=O)C2=O (stereo not shown) [Compound 8] | 200 to 1000
Cn1c2c(c3ccc(OC4CCN(CC5CN(c6ccc(-c7ccc8c(c7)C(C)(C)C(=O)N8c7ccc(C#N)c(Cl)c7)c(F)n6)C5)CC4)cc31)C(=O)N(C1CCC(=O)NC1=O)C2=O (stereo not shown) [Compound 2] | ≥ 1000
Cn1c2c(c3ccc(N4CCN(CC5CN(c6ccc(-c7ccc8c(c7)C(C)(C)C(=O)N8c7ccc(C#N)c(Cl)c7)c(F)n6)C5)CC4)cc31)C(=O)N(C1CCC(=O)NC1=O)C2=O (stereo not shown) [Compound 1] | 200 to 1000
CCn1c2c(c3ccc(N4CCN(CC5CN(c6ccc(-c7ccc8c(c7)C(C)(C)C(=O)N8c7ccc(C#N)c(Cl)c7)c(F)n6)C5)CC4)cc31)C(=O)N(C1CCC(=O)NC1=O)C2=O (stereo not shown) [Compound 12] | < 200
CCn1c2c(c3ccc(N4CCN(CC5CCN(c6ccc(-c7ccc8c(c7)C(C)(C)C(=O)N8c7ccc(C#N)c(Cl)c7)c(F)n6)CC5)CC4)cc31)C(=O)N(C1CCC(=O)NC1=O)C2=O (stereo not shown) [Compound 9] | 200 to 1000
CCn1c2c(c3ccc(OCCCN4CCN(c5ccc(-c6ccc7c(c6)C(C)(C)C(=O)N7c6ccc(C#N)c(Cl)c6)c(F)n5)CC4)cc31)C(=O)N(C1CCC(=O)NC1=O)C2=O (stereo not shown) [Compound 4] | 200 to 1000
Cn1c2c(c3ccc(N4CCN(CC5CCN(c6ccc(-c7ccc8c(c7)C(C)(C)C(=O)N8c7ccc(C#N)c(Cl)c7)c(F)n6)CC5)CC4)cc31)C(=O)N(C1CCC(=O)NC1=O)C2=O (stereo not shown) [Compound 5] | ≥ 1000
CCn1c2c(c3ccc(C4CCN(CC5CN(c6ccc(-c7ccc8c(c7)C(C)(C)C(=O)N8c7ccc(C#N)c(Cl)c7)c(F)n6)C5)CC4)cc31)C(=O)N(C1CCC(=O)NC1=O)C2=O (stereo not shown) [Compound 3] | 200 to 1000
